The text below walks through data of patent US4269842A, “Method for treating rhinoviral complaints” (Rhone-Poulenc Industries, priority 1979, dated 1981).

Converted amounts (≈) assume the structure as drawn.

One data set can be described thus: in vitro. The data set is classed as cell-based. The settings on record: human, mcr-5 fibroblasts.
Data set [1] has as its system Rhinovirus type 1 A (R 2060 strain). Nature of the data set: Inhibition of cytopathogenic effect of rhinovirus type 1 A in human fibroblast cultures. Conditions: Enterovirus, 37° C., 3-4 days; for MIC: human fibroblasts, prevention of cytopathogenic effect, read-out: Minimum inhibitory concentration, Rhinovirus type 1 A; for inhibition at 15 µg/mL: Fibroblast, at 15 μg/cm^3, human fibroblasts, read-out: Inhibition of cytopathogenic effect, Rhinovirus type 1 A (printed in minimum inhibitory concentration column). Format: cell-based, human rhinovirus type 1 A. The method, then: (§1) The type 1 A (R 2060 strain) and type 1 B (R 1112 strain) human rhinoviruses have the property of forming foci of necrosis (cytopathogeniceffect) on single-layer cell cultures. The compounds of the formula (I), which prevent the formation of these foci, have been selected as active substances.
(§2) Decreasing concentrations of the same solution or suspension of the compound under test are added to fresh identical cell cultures, the highest concentration being the maximum non-cytotoxic concentration. About one hour after the compounds have been added, the cultures are inoculated with 0.2 cm^3 of a suitably diluted suspension of virus (in isotonic phosphate buffer), which is capable of destroying about 75% of cells (cytopathogenic effect). 5 Control cultures (without test compound) are also inoculated. All the cultures are then incubated at 37° C. in a "roller" tissue culture apparatus at the same time as 2 control cultures (without test compound or virus) which have received 0.2 cm^3 of isotonic phosphate buffer. 3-4 Days after the start of the experiment, the cytopathogenic effect of the virus is examined under a microscope. The active compounds are those which have prevented the appearance of the cytopathogenic effect, and those which have inhibited it by at least 50% are considered to be partially active.
For orientation: Cytopathic effects are the visible damage that an infection or toxin causes in cultured cells.

The test system of data set [2] is Rhinovirus type 1 B (R 1112 strain). Put plainly: Inhibition of cytopathogenic effect of rhinovirus type 1 B in human fibroblast cultures. Format: cell-based, human rhinovirus type 1 B. The settings on record: Enterovirus, human fibroblasts, 37° C., 3-4 days, prevention of cytopathogenic effect, read-out: Minimum inhibitory concentration, Rhinovirus type 1 B. The method, then: as §1, §2

As for `c1cncc(N=C2SC[C@@H]3Cc4ccccc4CN23)c1` [Compound 1], the MNTC in “in vitro” is > 30 µg/mL. Further, the MIC in data set [1] amounted to 15 µg/mL (≈ 53.3 µM); in data set [2], 0.15 µg/mL (≈ 0.533 µM).
For the compound `Clc1ncccc1N=C1SC[C@@H]2Cc3ccccc3CN12` [Compound 2, (S)-3-[(2-chloropyrid-3-yl)-imino]-1,5,10,10a-tetrahydrothiazolo[3,4-b]isoquinoline], the MNTC in the data set “in vitro” stood at 15 µg/mL. Moreover, the inhibition at 15 µg/mL in data set [1] is ≥ 50%. Also, in data set [2], the MIC stood at 0.016 µg/mL (≈ 0.0507 µM).
`Fc1ncccc1N=C1SC[C@@H]2Cc3ccccc3CN12` [Compound 3, (S)-3-[(2-fluoropyrid-3-yl)-imino]-1,5,10,10a-tetrahydrothiazolo[3,4-b]-isoquinoline]: the MNTC in “in vitro” was 15 µg/mL. In addition, the MIC in data set [1] came to 15 µg/mL (≈ 50.1 µM); in data set [2] it was 0.016 µg/mL (≈ 0.0534 µM).
For the compound `COc1ncccc1N=C1SC[C@@H]2Cc3ccccc3CN12` [Compound 4, (S)-3-[(2-methoxypyrid-3-yl)-imino]-1,5,10,10a-tetrahydrothiazolo[3,4-b]isoquinoline], in the data set “in vitro”, the MNTC is 15 µg/mL. In data set [1], the inhibition at 15 µg/mL was ≥ 50%. In addition, the MIC in data set [2] was 1.5 µg/mL (≈ 4.82 µM).
As for `c1ccc2c(c1)C[C@H]1CSC(=Nc3cccc4cnccc34)N1C2` [Compound 5], the MNTC in the data set “in vitro” is > 60 µg/mL. Further, the MIC in data set [1] and in data set [2] was 0.7 µg/mL (≈ 2.11 µM) in each case.
In turn, `Cc1cc2c(N=C3SC[C@@H]4Cc5ccccc5CN34)cccc2cn1` [Compound 6, (S)-3-(3-methylisoquinol-5-yl)-imino-1,5,10,10a-tetrahydrothiazolo[3,4-b]isoquinoline] came in with an MNTC in “in vitro” of 30 µg/mL. In addition, the MIC in data set [1] and in data set [2] was 1.5 µg/mL (≈ 4.34 µM) each time.
